Measurements: paper PMC2925893, “Structure Activity Relationship of Dendrimer Microbicides with Dual Action Antiviral Activity” (PLoS ONE, 2010)
Where two headings read alike, the source gives them in different places.

Key:
[1] = system: X4 (HXB2) HIV-1 envelope mediated cell-to-cell fusion; test: Cell-to-cell fusion assay, X4 envelope; format: cell-based
Experimental: (§1) The gp120 gene from the R5 HIV-1 strain ADA and X4 HIV-1 strain HXB2 was cloned into a HIV-1 Env expression vector. Briefly, the 2.1 kb HIV-1 env within Kpn I and Bam HI restriction sites was cloned from viral genomic DNA into pSVIII-HXB2 Env expression vector [67]. The pcDNA3-CD4, pcDNA3-CCR5 and pcDNA3-CXCR4 plasmids express human CD4, R5 and X4 respectively. pSVTat expresses the HIV-1 Tat protein. Cell-cell fusion assays were conducted as described previously. Briefly, Cf2-Luc target cells seeded in 25 cm^2 tissue culture flasks were transfected with 1 µg of CD4 plasmid and 3 µg of R5 or X4 plasmid. 293T effector cells seeded in 6-well tissue culture plates were co-transfected with 3.4 µg of ADA or HXB2 gp120-expressing plasmid and 0.6 µg pSVTat. Target and effector cells were transfected using Lipofectamine 2000 (Invitrogen) according to the manufacturers' protocol. Effector cells expressing ADA or HXB2 Env were pre-incubated in DMEM-10 containing 10-fold increasing concentrations of efavarenz, T-20, dendrimer or no drug (untreated controls) for 30 min at 37°C. Approximately 2×10^4 effector cells were added to 2×10^4 Cf2-Luc target cells and were incubated at 37°C in replicate wells containing 200 µl of culture. Cells from replicate wells were harvested at 7 h post-mixing and assayed for luciferase activity (Promega) according to the manufacturers' protocol. […]

HIV-1 NL4.3 = test: Time of addition assay in TZM-bl cells; format: cell-based
Experimental: TZM-bl cells were seeded in 96-well tissue culture plates at 2.5×10^4 cells per well in 100 µl of DMEM-10. Cells were grown for 12 h at 37°C in 5% CO2 after which triplicate wells were infected with NL4.3 at a multiplicity of infection of one by spinoculation. Briefly, DMEM-10 was removed from cells and replaced with 100 µl of virus in DMEM-10 and plates were centrifuged at 1200 g for 60 min at 17°C. Viral inoculum was removed and cells washed twice with 250 µl of cold DMEM-10 after which 100 µl of DMEM-10 or DMEM-10 containing drug was added at t = 0 to appropriate cells. DMEM-10 containing drug was subsequently added at t = 2, 3, 4, 5, 6, 8 and 24 h post infection to appropriate wells. At 31 h postinfection, HIV-1 replication was determined by measuring luciferase activity as above.

HIV-1 strains = test: microbe, parasite or virus in culture; format: cell-based
Experimental: (§2) Fresh human PBMCs were isolated from screened donors, seronegative for HIV and hepatitis B virus. Cells were pelleted/washed 2-3 times by low speed centrifugation and resuspended in Dulbecco’s phosphate buffered saline (PBS) to remove contaminating platelets. The leukophoresed blood was then diluted 1:1 with PBS and layered over 14 ml of Ficoll-Hypaque density gradient (Lymphocyte Separation Medium, Cell Grow #85-072-CL, density 1.078 +/- 0.002 gm/ml) in a 50 ml centrifuge tube and then centrifuged for 30 min at 600g. Banded PBMCs were gently aspirated from the resulting interface and subsequently washed twice with PBS by low speed centrifugation. After the final wash, cells were counted by trypan blue exclusion and resuspended at 1 x 10^7 cells/ml in RPMI 1640 supplemented with 15% Fetal Bovine Serum (FBS), 2 mM L-glutamine, 4 µg/ml PHA-P. The cells were allowed to incubate for 48-72 h at 37°C. After incubation, PBMCs were centrifuged and resuspended in RPMI 1640 with 15% FBS, 2 mM L-glutamine, 100 U/ml penicillin, 100 µg/ml streptomycin, 10 µg/ml gentamycin, and 20 U/ml recombinant human IL-2. PBMCs were maintained in this medium at a concentration of 1-2 x 10^6 cells/ml with biweekly medium changes until used in the assay protocol. Monocytes were depleted from the culture as the result of adherence to the tissue culture flask.
For the standard PBMC assay, PHA-P stimulated cells from at least two normal donors were pooled, diluted in fresh medium to a final concentration of 1 x 10^6 cells/ml, and plated in the wells of a 96-well round bottom microplate at 50 µl/well (5 x 10^4 cells/well). […] Fifty microlitres of a predetermined dilution of virus stock was placed in each test well (final MOI ≅ 0.1). Wells with cells and virus alone were used for virus control. […] The PBMC cultures were maintained for seven days following infection, at which time cell-free supernate samples were collected and assayed for reverse transcriptase activity as described below.
A microtiter plate-based reverse transcriptase (RT) reaction was utilized. Tritiated thymidine triphosphate (^3H-TTP, 80 Ci/mmol, NEN) was received in 1:1 dH2O:ethanol at 1 mCi/ml. PolyrA:oligodT template-primer (Pharmacia) was prepared as a stock solution by combining 150 µl polyrA (20 mg/ml) with 0.5 ml oligodT (20 units/ml) and 5.35 ml sterile dH2O followed by aliquoting (1.0 ml) and storage at -20°C. The RT reaction buffer was prepared fresh on a daily basis and consisted of 125 µl 1.0 M EGTA, 125 µl dH2O, 125 µl 20% Triton X100, 50 µl 1.0 M Tris (pH 7.4), 50 µl 1.0 M DTT, and 40 µl 1.0 M MgCl2. The final reaction mixture was prepared by combining 1 part ^3H-TTP, 4 parts dH2O, 2.5 parts polyrA:oligodT stock and 2.5 parts reaction buffer. Ten microliters of this reaction mixture was placed in a round bottom microtiter plate and 15 µl of virus containing supernatant was added and mixed. The plate was incubated at 37°C for 60 min. Following incubation, the reaction volume was spotted onto DE81 filter-mats (Wallac), washed 5 times for 5 min each in a 5% sodium phosphate buffer or 2X saline sodium citrate (SSC, Life Technologies), 2 times for 1 min each in distilled water, 2 times for 1 min each in 70% ethanol, and then dried. Incorporated radioactivity (counts per minute, CPM) was quantified using standard liquid scintillation techniques.
(§3) The plate was read spectrophotometrically at 490/650 nm with a Molecular Devices Vmax plate reader

HIV-2 strains = test: Anti-HIV activity in PHA-stimulated human PBMCs, supernatant RT activity readout; format: cell-based; settings: PBMC
Experimental: as §2
For the standard PBMC assay, PHA-P stimulated cells from at least two normal donors were pooled, diluted in fresh medium to a final concentration of 1 x 10^6 cells/ml, and plated in the wells of a 96-well round bottom microplate at 50 µl/well (5 x 10^4 cells/well). […] Fifty microlitres of a predetermined dilution of virus stock was placed in each test well (final MOI ≅ 0.1). Wells with cells and virus alone were used for virus control. […]
A microtiter plate-based reverse transcriptase (RT) reaction was utilized. […] Incorporated radioactivity (counts per minute, CPM) was quantified using standard liquid scintillation techniques.
as §3

[2] = system: R5 (ADA) HIV-1 envelope mediated cell-to-cell fusion; test: Cell-to-cell fusion assay, R5 envelope; format: cell-based
Experimental: as §1

HSV-2 strain G = system: HSV-2 strain G; design: method as in PMID 16740164; settings: mouse, single dose; cited from earlier work
[3] = PBMC, multi-drug resistant HIV-1 MDR769

In the case of `c1cc(CN2CCCNCCNCCCNCC2)ccc1CN1CCCNCCNCCCNCC1` [AMD3100], the “inhibition of cell-to-cell fusion” value [1] is reported as “failed to inhibit fusion” and the “time of addition result” value (HIV-1 NL4.3; dendrimers at 20 and 100 µg/ml) is reported as “failed to block HIV-1 replication if the drug was added after virus addition”.
With `Cc1cn([C@H]2C[C@H](N=[N+]=[N-])[C@@H](CO)O2)c(=O)[nH]c1=O` [AZT, zidovudine] the EC50 (HIV-1 strains; Human immunodeficiency virus 1, CCR5, PBMC, Clade A (92RW016), CCR5) was 2 nM, the EC50 (HIV-1 strains; Human immunodeficiency virus 1, CCR5, PBMC, Clade B (302056), CCR5) was 10 nM and the EC50 (HIV-1 strains; Human immunodeficiency virus 1, CCR5, PBMC, Clade C (92BR025), CCR5) was 4 nM. For the same molecule, the EC50 (HIV-1 strains; Human immunodeficiency virus 1, CCR5, PBMC, Clade G (JV1083), CCR5) was 4 nM, the EC50 (HIV-1 strains; Human immunodeficiency virus 1, CCR5, PBMC, Clade O (BCF01), CCR5) was 4 nM and the EC50 (HIV-1 strains; Human immunodeficiency virus 1, CCR5, PBMC, SLKA (NSI), CCR5) was 4 nM. The EC50 (HIV-1 strains; Human immunodeficiency virus 1, CCR5, PBMC, TEKI (NSI), CCR5) was 2 nM, the EC50 (HIV-1 strains; Human immunodeficiency virus 1, PBMC, PBMC, Clade D (92UG046), CXCR4) was 3 nM and the EC50 (HIV-1 strains; Human immunodeficiency virus 1, PBMC, PBMC, Clade EA (CMU02), CXCR4) was 8 nM. It also gave an EC50 (HIV-1 strains; Human immunodeficiency virus 1, PBMC, PBMC, Clade F (93BR020), dual tropic) of 2 nM, an EC50 (HIV-1 strains; Human immunodeficiency virus 1, PBMC, PBMC, ROJO (SI), CXCR4) of 2 nM and an EC50 (HIV-1 strains; Human immunodeficiency virus 1, PBMC, PBMC, WEJO (SI), CXCR4) of 0.3 nM. It also gave an EC50 (HIV-1 strains; Human immunodeficiency virus 1, PBMC, read-out: EC50 of positive control, assay validation, PBMC assays) of no more than 10 nM, an SI (HIV-1 strains; PBMC, Clade A (92RW016)) greater than 500 and an SI (HIV-1 strains; PBMC, Clade B (302056)) greater than 100. For the same molecule, the SI (HIV-1 strains; PBMC, Clade C (92BR025)) was greater than 250, the SI (HIV-1 strains; PBMC, Clade D (92UG046)) was greater than 333 and the SI (HIV-1 strains; PBMC, Clade EA (CMU02)) was greater than 125. The SI (HIV-1 strains; PBMC, Clade F (93BR020)) was greater than 500, the SI (HIV-1 strains; PBMC, Clade G (JV1083)) was greater than 250 and the SI (HIV-1 strains; PBMC, Clade O (BCF01)) was greater than 250. For the same molecule, the SI (HIV-1 strains; PBMC, ROJO (SI)) was greater than 500, the SI (HIV-1 strains; PBMC, SLKA (NSI)) was greater than 250 and the SI (HIV-1 strains; PBMC, TEKI (NSI)) was greater than 500. It also gave an SI (HIV-1 strains; PBMC, WEJO (SI)) greater than 3333, an EC50 (HIV-2 strains; Human immunodeficiency virus 2, HIV-2 CBL-20, AZT column) of 1 nM and an SI (HIV-2 strains; HIV-2 CBL-20) greater than 1000. The SI (HIV-2 strains; HIV-2 CDC 310319) was greater than 1000.
With `O=C1Nc2ccc(Cl)cc2[C@@](C#CC2CC2)(C(F)(F)F)O1` [efavirenz] the “inhibition of cell-to-cell fusion” value [1] was “did not inhibit cell-to-cell fusion” and the “inhibition of cell-to-cell fusion” value [2] was “did not inhibit cell-to-cell fusion”.
In the case of `Cc1ccnc2c1NC(=O)c1cccnc1N2C1CC1` [nevirapine], the “time post infection that addition could be delayed before loss of HIV-1 inhibitory activity” value (HIV-1 NL4.3) is reported as “up to 6 h”.
For `CCCCCCCCCc1ccc(OCCOCCOCCOCCOCCOCCOCCOCCOCCO)cc1` [nonoxynol 9], the “susceptibility to HSV-2 infection after exposure” value (HSV-2 strain G) is listed as “susceptibility is greatly increased”.
With Dextran Sulfate the EC50 (HIV-1 strains; [3]) was 1.25 µg/mL and the SI (HIV-1 strains; [3]) was greater than 80.
With maraviroc the “inhibition of cell-to-cell fusion” value [2] was “failed to inhibit fusion”.
